In patent US20230144436A1, “MUSCLE TARGETING COMPLEXES AND USES THEREOF FOR TREATING MYOTONIC DYSTROPHY” (Dyne Therapeutics, Inc., priority 2020, published 2023):

System: DMPK
Experiment: DMPK knockdown by transfected antisense oligonucleotides in DM1 C15 myotubes at 0.5 nM and 50 nM
Format: cell-based
Conditions: 72 hours; for Normalized DMPK Remaining: relative to vehicle control = 1.00
Method in brief: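 DMPK remaining was measured by qPCR 72 h post-transfection, normalized to lipofectamine-only vehicle wells (=1.00). Oligonucleotides were delivered at 0.5 and 50 nM final to DM1 C15 myoblasts differentiated seven days into myotubes, in triplicate.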

[1] = 0.5 nM oligonucleotide, qPCR, relative to vehicle control
[2] = 50 nM oligonucleotide, qPCR, relative to vehicle control

474 (AGUCGGCCAGGCGGAUGUGG; chemistry not given here) [compound 474]
Percent DMPK Reduction (0.5 nM oligonucleotide): 6.15% | Normalized DMPK Remaining (0.5 nM oligonucleotide): 0.94 | Percent DMPK Reduction (50 nM oligonucleotide): 67.44% | Normalized DMPK Remaining (50 nM oligonucleotide): 0.33

269 (CUGUCCCGGAGACCAUCCCA; chemistry not given here) [compound 269]
Percent DMPK Reduction [1]: 35.85% | Normalized DMPK Remaining (0.5 nM oligonucleotide, qPCR): 0.64 | Percent DMPK Reduction [2]: 50.78% | Normalized DMPK Remaining (50 nM oligonucleotide, qPCR): 0.49

264 (AGGAUGUUGUCGGGUUUGAU; chemistry not given here) [compound 264]
Percent DMPK Reduction [1]: 24.19% | Normalized DMPK Remaining (0.5 nM oligonucleotide, qPCR): 0.76 | Percent DMPK Reduction [2]: 39.48% | Normalized DMPK Remaining (50 nM oligonucleotide, qPCR): 0.61

304 (UUCCCGAGUAAGCAGGCAGA; chemistry not given here) [compound 304]
Percent DMPK Reduction [1]: 31.49% | Normalized DMPK Remaining (0.5 nM oligonucleotide, qPCR): 0.69 | Percent DMPK Reduction [2]: 49.81% | Normalized DMPK Remaining (50 nM oligonucleotide, qPCR): 0.50

353 (GGCGAAUACACCCAGCGCCC; chemistry not given here) [compound 353]
Percent DMPK Reduction [1]: 19.77% | Normalized DMPK Remaining (0.5 nM oligonucleotide, qPCR): 0.80 | Percent DMPK Reduction [2]: 68.72% | Normalized DMPK Remaining (50 nM oligonucleotide, qPCR): 0.31

374 (CCGCUCCCCAAACUUGCUCA; chemistry not given here) [compound 374]
Percent DMPK Reduction [1]: 0.28% | Normalized DMPK Remaining (0.5 nM oligonucleotide, qPCR): 1.00 | Percent DMPK Reduction [2]: 56.82% | Normalized DMPK Remaining (50 nM oligonucleotide, qPCR): 0.43

463 (AGGUAGUUCUCAUCCUGGAA; chemistry not given here) [compound 463]
Percent DMPK Reduction (0.5 nM oligonucleotide): 7.36% | Normalized DMPK Remaining (0.5 nM oligonucleotide): 0.93 | Percent DMPK Reduction (50 nM oligonucleotide): 62.62% | Normalized DMPK Remaining (50 nM oligonucleotide): 0.37

448 (UUGGGCAGAUGGAGGGCCUU; chemistry not given here) [compound 448]
Percent DMPK Reduction (0.5 nM oligonucleotide): 19.08% | Normalized DMPK Remaining (0.5 nM oligonucleotide): 0.81 | Percent DMPK Reduction (50 nM oligonucleotide): 78.39% | Normalized DMPK Remaining (50 nM oligonucleotide): 0.22

305 (UGAUCUUCAUGGCAUACACC; chemistry not given here) [compound 305]
Percent DMPK Reduction [1]: 27.70% | Normalized DMPK Remaining (0.5 nM oligonucleotide, qPCR): 0.72 | Percent DMPK Reduction [2]: 89.68% | Normalized DMPK Remaining (50 nM oligonucleotide, qPCR): 0.10

249 (AAACUUGCUCAGCAGUGUCA; chemistry not given here) [compound 249]
Percent DMPK Reduction [1]: 30.85% | Normalized DMPK Remaining (0.5 nM oligonucleotide, qPCR): 0.69 | Percent DMPK Reduction [2]: 50.69% | Normalized DMPK Remaining (50 nM oligonucleotide, qPCR): 0.49

339 (CUCCGCCAGGUAGAAGCGCG; chemistry not given here) [compound 339]
Percent DMPK Reduction [1]: 30.22% | Normalized DMPK Remaining (0.5 nM oligonucleotide, qPCR): 0.70 | Percent DMPK Reduction [2]: 78.14% | Normalized DMPK Remaining (50 nM oligonucleotide, qPCR): 0.22

386 (CUCAGUGCAUCCAAAACGUG; chemistry not given here) [compound 386]
Percent DMPK Reduction (0.5 nM oligonucleotide): 7.65% | Normalized DMPK Remaining (0.5 nM oligonucleotide): 0.92 | Percent DMPK Reduction (50 nM oligonucleotide): 54.26% | Normalized DMPK Remaining (50 nM oligonucleotide): 0.46

437 (CAUCCGCUCCUGCAACUGCC; chemistry not given here) [compound 437]
Percent DMPK Reduction (0.5 nM oligonucleotide): 21.04% | Normalized DMPK Remaining (0.5 nM oligonucleotide): 0.79 | Percent DMPK Reduction (50 nM oligonucleotide): 76.81% | Normalized DMPK Remaining (50 nM oligonucleotide): 0.23

281 (ACAGCGGUCCAGCAGGAUGU; chemistry not given here) [compound 281]
Percent DMPK Reduction [1]: 19.94% | Normalized DMPK Remaining (0.5 nM oligonucleotide, qPCR): 0.80 | Percent DMPK Reduction [2]: 55.14% | Normalized DMPK Remaining (50 nM oligonucleotide, qPCR): 0.45

268 (UCAGUGCAUCCAAAACGUGG; chemistry not given here) [compound 268]
Percent DMPK Reduction [1]: 15.76% | Normalized DMPK Remaining (0.5 nM oligonucleotide, qPCR): 0.84 | Percent DMPK Reduction [2]: 42.06% | Normalized DMPK Remaining (50 nM oligonucleotide, qPCR): 0.58

289 (AUGACAAUCUCCGCCAGGUA; chemistry not given here) [compound 289]
Percent DMPK Reduction [1]: 42.38% | Normalized DMPK Remaining (0.5 nM oligonucleotide, qPCR): 0.58 | Percent DMPK Reduction [2]: 60.47% | Normalized DMPK Remaining (50 nM oligonucleotide, qPCR): 0.40

398 (ACGUGUGCCUCUAGGUCCCG; chemistry not given here) [compound 398]
Percent DMPK Reduction (0.5 nM oligonucleotide): 16.47% | Normalized DMPK Remaining (0.5 nM oligonucleotide): 0.84 | Percent DMPK Reduction (50 nM oligonucleotide): 77.73% | Normalized DMPK Remaining (50 nM oligonucleotide): 0.22

434 (UUUCAUAGGCGAAUACACCC; chemistry not given here) [compound 434]
Percent DMPK Reduction (0.5 nM oligonucleotide): 5.56% | Normalized DMPK Remaining (0.5 nM oligonucleotide): 0.94 | Percent DMPK Reduction (50 nM oligonucleotide): 53.28% | Normalized DMPK Remaining (50 nM oligonucleotide): 0.47

459 (GCUUGCUGCCUUCCCAGGCC; chemistry not given here) [compound 459]
Percent DMPK Reduction (0.5 nM oligonucleotide): 1.14% | Normalized DMPK Remaining (0.5 nM oligonucleotide): 0.99 | Percent DMPK Reduction (50 nM oligonucleotide): 81.01% | Normalized DMPK Remaining (50 nM oligonucleotide): 0.19

431 (GGAGCAGGGAAAGCGCCUCC; chemistry not given here) [compound 431]
Percent DMPK Reduction (0.5 nM oligonucleotide): 21.46% | Normalized DMPK Remaining (0.5 nM oligonucleotide): 0.79 | Percent DMPK Reduction (50 nM oligonucleotide): 88.35% | Normalized DMPK Remaining (50 nM oligonucleotide): 0.12

329 (UACACCUGGCCCGUCUGCUU; chemistry not given here) [compound 329]
Percent DMPK Reduction [1]: 31.10% | Normalized DMPK Remaining (0.5 nM oligonucleotide, qPCR): 0.69 | Percent DMPK Reduction [2]: 57.43% | Normalized DMPK Remaining (50 nM oligonucleotide, qPCR): 0.43

351 (UGAUGUCCCUGUGCACGUAG; chemistry not given here) [compound 351]
Percent DMPK Reduction [1]: 20.58% | Normalized DMPK Remaining (0.5 nM oligonucleotide, qPCR): 0.79 | Percent DMPK Reduction [2]: 59.00% | Normalized DMPK Remaining (50 nM oligonucleotide, qPCR): 0.41

382 (AUGUCCCUGUGCACGUAGCC; chemistry not given here) [compound 382]
Percent DMPK Reduction (0.5 nM oligonucleotide): 16.78% | Normalized DMPK Remaining (0.5 nM oligonucleotide): 0.83 | Percent DMPK Reduction (50 nM oligonucleotide): 49.29% | Normalized DMPK Remaining (50 nM oligonucleotide): 0.51

314 (UCAGCAGUGUCAGCAGGUCC; chemistry not given here) [compound 314]
Percent DMPK Reduction [1]: 33.46% | Normalized DMPK Remaining (0.5 nM oligonucleotide, qPCR): 0.67 | Percent DMPK Reduction [2]: 61.11% | Normalized DMPK Remaining (50 nM oligonucleotide, qPCR): 0.39
